US5710174A, “Factor XIIIA inhibitor” (Zymo Genetics, Inc., priority 1995, dated 1998)

Experiments:
[1] = Solubility in ethanol / DMSO; assay type: physicochemical
[2] = tested on: FVIIa; assay: FVIIa inhibition assay; assay type: biochemical; conditions: up to 100 μM, absorbance at 405 nm
Experimental: (§1) For the FVIIa, FXa and thrombin inhibition assays described below, an inhibition assay buffer containing 50 mM Tris, 5 mM CaCl2, 150 mM NaCl, 0.1% Tween 20, and 0.1% BSA (albumin, bovine, Sigma fraction V (Sigma)) at about pH 8.0 was used 2. For each of the inhibition assays, the total reaction volume was 100 μl and the assays were performed in 96-well plates.
For the FVIIa inhibition assay, about 30 μl of inhibition assay buffer, 25 μl of 20 nM recombinant FVIIa (Walt Kiesel, University of New Mexico), and 10 μl of one of a series of dilutions of ZG-1400a were added to plate wells. The ZG-1400a was prepared in 10% DMSO and tested using half-log dilutions, starting at a final assay concentration of 100 μM and diluting to 1 nM. A negative (no inhibition) control contained 30 μl inhibition assay buffer, 25 μl of 20 nM FVIIa, and enough DMSO to give a 1% final DMSO concentration.
The test and control wells were incubated for about 10 min at room temperature. After incubation, 25 μl of 20 nM tissue factor (Walt Kiesel, University of New Mexico) was added to the wells and incubated for a second 10 min period at room temperature. […]
(§2) This determination was made by reading absorbance at 405 nm on a ThermoMax microplate reader.

[3] = tested on: Factor IX (FIX); assay: Factor IX inhibition assay; assay type: biochemical; conditions: up to 100 μM, absorbance at 405 nm
Experimental: 60 μl buffer, 10 μl of 40 nM FIX, and 10 μl of one of a series of dilutions of ZG-1400a were added to plate wells. The buffer contained 150 mM NaCl, 5 mM CaCl2, 25 mM Tris, pH 8.0, and 0.1% polyethyleneglycol (PEG). The ZG-1400a was prepared in 10% DMSO and tested using half-log dilutions, starting at a final assay concentration of 100 μM and diluting to 1 nM. A negative (no inhibition) control contained 60 μl buffer, 10 μl of 40 nM FIX, and enough DMSO to give a 1% final DMSO concentration.
The test and control wells were incubated approximately 10 min at room temperature. After incubation, approximately 10 μl of a mixture containing 200 nM FX (Walt Kiesel, University of New Mexico), 500 pM FVIII (Novo Nordisk) and 10 μM PCPS (phosphatidylcholine:phosphatidylserine (Sigma) in a 1:1 ratio) was added to each well. Then 10 μl of 1 mM S2765 substrate (Kabi) was added to each well.
In this assay, FIX converts FX to FXa. […] This determination was made by reading absorbance at 405 nm on a ThermoMax microplate reader.

[4] = tested on: Factor Xa (FXa); assay: Factor Xa inhibition assay; assay type: biochemical; conditions: up to 100 μM, absorbance at 405 nm
Experimental: as §1
(§3) About 30 μl inhibition assay buffer, 50 μl of 10 nM FXa and 10 μl of one of a series of dilutions of ZG-1400a were added to plate wells. The ZG-1400a was prepared in 10% DMSO and tested using half-log dilutions, starting at a final assay concentration of 100 μM and diluting to 1 nM. A negative (no inhibition) control contained 30 μl inhibition assay buffer, 50 μl of 10 nM FXa, and enough DMSO to give a 1% final DMSO concentration.
The test and control wells were incubated for about 10 min at room temperature. After the incubation period, 10 mM N-α-benzyloxycarbonyl-D-arginine-L-glycyl-L-arginyl-p-nitroanilide-dihydrochloride (S2765 substrate, Kabi) was added to each well.
as §2

[5] = tested on: thrombin; assay: Thrombin inhibition assay; assay type: biochemical, bovine; conditions: up to 100 μM, absorbance at 405 nm
Experimental: as §1
as §3, with “2 μg/ml thrombin (bovine, Enzyme Research Labs),” for “10 nM FXa”, “2 μg/ml thrombin,” for “10 nM FXa,”
The test and control wells were incubated for about 10 min at room temperature. After the incubation period, 20 μl of 1 mM SPECTROZYME TH (H-D-hexahydrotyrosyl-L-alanyl-L-arginine-p-nitroanilide-diacetate salt, American Diagnostica, Inc., New York, N.Y.) was added to each well.
as §2

Row | Structure (SMILES) | solubility [1] | inhibition of FVIIa activity [2] | inhibition of FIX activity [3] | inhibition of FXa activity [4] | inhibition of thrombin activity [5]
1 | CC=CCC=CCCC(=O)C1OC1C(N)=O (centres unmarked) [Cerulenin, 2,3-epoxy-4-oxo-7,10-dodecadienamide] | soluble in ethanol, but not DMSO |  |  |  | 
2 | C[C@@H]1CCC/C=C\C(=O)Cc2cc(O)cc(O)c2C(=O)O1 [ZG-1400, R(-) enantiomer of cis-resorcylide] |  | not even the highest concentration of ZG-1400a assayed (100 μM) inhibited FVIIa activity | Not even the highest concentration of ZG-1400a assayed (100 μM) inhibited FIX activity | not even the highest concentration of ZG-1400a assayed (100 μM) inhibited FXa activity | not even the highest concentration of ZG-1400a assayed (100 μM) inhibited thrombin activity
